Experimental data reported in US20110319396A1, “BENZODIAZEPIN-2-ON DERIVATIVES” (MSD K.K., priority 2009, published 2011).

Biological target: T1, Human DGAT1 (Homo sapiens, UniProt O75907)
T1 construct: made in house; host or cells: Pichia pastoris (printed 'Pichia pastris'), vector pPICZA, membrane fraction
T1 sequence (O75907 1-488): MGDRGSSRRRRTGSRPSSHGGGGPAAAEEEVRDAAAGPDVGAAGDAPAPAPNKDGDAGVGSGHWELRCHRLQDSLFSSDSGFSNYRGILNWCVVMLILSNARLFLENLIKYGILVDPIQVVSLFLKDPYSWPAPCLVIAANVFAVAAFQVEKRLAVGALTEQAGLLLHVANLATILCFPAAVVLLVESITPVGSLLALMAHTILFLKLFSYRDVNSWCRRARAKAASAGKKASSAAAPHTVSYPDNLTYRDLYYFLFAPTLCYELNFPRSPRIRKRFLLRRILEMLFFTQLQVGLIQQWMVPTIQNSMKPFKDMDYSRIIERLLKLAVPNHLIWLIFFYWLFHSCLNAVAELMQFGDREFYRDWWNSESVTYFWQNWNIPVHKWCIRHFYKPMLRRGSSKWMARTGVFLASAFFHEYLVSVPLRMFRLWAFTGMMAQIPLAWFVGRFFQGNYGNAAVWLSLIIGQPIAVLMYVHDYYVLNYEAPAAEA
Assay: DGAT1 Inhibitory Activity Test
Assay type: biochemical
Details: DGAT1-expressed yeast membrane fraction as enzyme source; 40 μM Dioelin, 15 μM [14C]-oleoyl-CoA; room temperature for 30 minutes
Experimental: Human DGAT1 genes were amplified by PCR using primers described below from human cDNA library (Clontech).
The amplified human DGAT1 genes were introduced into a yeast expression vector pPICZA (Invitrogen). The resultant expression plasmid was introduced into an yeast (Pichia pastris) by electroporation to produce a recombinant yeast. The recombinant yeast was cultured in the presence of 0.5% methanol for 72 hours, and the cells were crushed using glass beads in 10 mM Tris pH 7.5, 250 mM sucrose and 1 mM EDTA, followed by adjusting the membrane fraction by centrifugation to use the adjusted membrane fraction as an enzyme source.
To the reaction liquid having the following composition: 100 mM Tris pH 7.5, 100 mM MgCl2, 100 mM sucrose, 40 μM Dioelin, 15 μM [^14C]-oleoyl-CoA, 0.25 μg of test substance, DGAT1-expressed yeast membrane fraction, was added, and the mixture having a volume of 100 μl was incubated at room temperature for 30 minutes. To the reaction liquid, 100 μl of 2-propanol/heptan/H2O (80/20/2) was added, the mixture was stirred well, followed by adding 200 of heptane and further stirring the mixture. After centrifugation, the heptane layer was collected, ethanol/0.1N NaOH/H2O (50:5:45) was added, the mixture was thus stirred, followed by recentrifuging the mixture and collecting the heptane layer. After exsiccation of the resultant heptane layer, 100 μl of Microscint 0 (PerkinElmer) was added, and the radioactivity was measured with a liquid scintillation counter. The inhibitory activity was calculated from the following formula:
Inhibition rate=100−(radioactivity in case of addition of test compound−background)/(radioactivity in case of addition of no test compound−background)×100
wherein the background means the radioactivity in case of addition of no membrane fraction.

IC50	Compound
47.3 nM	CN1C(=O)[C@H](NC(=O)C2(NC(=O)c3ccccc3)CC2)CN(Cc2cc(C(F)(F)F)cc(C(F)(F)F)c2)c2ccccc21 [Example 64, N-{1-[({(3R)-5-[3,5-bis(trifluoromethyl)benzyl]-1-methyl-2-oxo-2,3,4,5-tetrahydro-1H-1,5-benzodiazepin-3-yl}amino)carbonyl]cyclopropyl}benzamide]
140 nM	CN1C(=O)[C@H](NC(=O)C(C)(C)NC(=O)c2ccc(F)cc2)CN(Cc2ccc(F)c(C(F)(F)F)c2)c2ccc(F)cc21 [Example 84, 4-fluoro-N-[2-({(3R)-8-fluoro-5-[4-fluoro-3-(trifluoromethyl)benzyl]-1-methyl-2-oxo-2,3,4,5-tetrahydro-1H-1,5-benzodiazepin-3-yl}amino)-1,1-dimethyl-2-oxoethyl]benzamide]
20.8 nM	CN1C(=O)[C@H](NC(=O)C2(NC(=O)OC(C)(C)C)CC2)CN(Cc2ccc(OC(F)(F)F)cc2)c2ccccc21 [Example 92, tert-butyl {1-[({(3R)-1-methyl-2-oxo-5-[4-(trifluoromethoxy)benzyl]-2,3,4,5-tetrahydro-1H-1,5-benzodiazepin-3-yl}amino)carbonyl]cyclopropyl}carbamate]
1340 nM	Cc1cnc(C(=O)NC(C)(C)C(=O)N[C@@H]2CN(Cc3ccc(OC(F)(F)F)cc3)c3ccc(F)cc3N(C)C2=O)cn1 [Example 98, N-[2-({(3R)-8-fluoro-1-methyl-2-oxo-5-[4-(trifluoromethoxy)benzyl]-2,3,4,5-tetrahydro-1H-1,5-benzodiazepin-3-yl}amino)-1,1-dimethyl-2-oxoethyl]-5-methylpyrazin-2-carboxyamide]
2230 nM	CN1C(=O)[C@H](NC(=O)C(C)(C)NC(=O)c2ncco2)CN(Cc2ccc(OC(F)(F)F)cc2)c2ccc(F)cc21 [Example 100, N-[2-({(3R)-8-fluoro-1-methyl-2-oxo-5-[4-(trifluoromethoxy)benzyl]-2,3,4,5-tetrahydro-1H-1,5-benzodiazepin-3-yl}amino)-1,1-dimethyl-2-oxoethyl]-1,3-oxazol-2-carboxyamide]

The next lines start with the compound.

Compound	IC50
CN1C(=O)[C@H](NC(=O)C(C)(C)NC(=O)c2ccc(F)cc2)CN(c2ccc(OC(F)(F)F)cc2)c2ccc(F)cc21 [Example 1, 4-fluoro-N-[2-({(3R)-8-fluoro-1-methyl-2-oxo-5-[4-(trifluoromethoxy)phenyl]-2,3,4,5-tetrahydro-1H-1,5-benzodiazepin-3-yl}amino)-1,1-dimethyl-2-oxoethyl]benzamide]	166 nM
CN1C(=O)[C@H](NC(=O)C2(NC(=O)c3ccccc3)CC2)CN(c2ccc(OC(F)(F)F)cc2)c2ccc(F)cc21 [Example 12, N-{1-[({(3R)-8-fluoro-1-methyl-2-oxo-5-[4-(trifluoromethoxy)phenyl]-2,3,4,5-tetrahydro-1H-1,5-benzodiazepin-3-yl}amino)carbonyl]cyclopropyl}benzamide]	192 nM
CN1C(=O)[C@H](NC(=O)C(C)(C)NC(=O)C2(C(F)(F)F)CC2)CN(c2cc(C(F)(F)F)cc(C(F)(F)F)c2)c2ccc(F)cc21 [Example 27, N-{(3R)-5-[3,5-bis(trifluoromethyl)phenyl]-8-fluoro-1-methyl-2-oxo-2,3,4,5-tetrahydro-1H-1,5-benzodiazepin-3-yl}-2-methyl-N^2-{[1-(trifluoromethyl)cyclopropyl]carbonyl}alaninamide]	16.3 nM
CN1C(=O)[C@H](NC(=O)C(C)(C)NC(=O)NC(C)(C)C)CN(c2cc(Cl)cc(Cl)c2)c2ccc(F)cc21 [Example 47, N^2-[(tert-butylamino)carbonyl]-N-[(3R)-5-(3,5-dichlorophenyl)-8-fluoro-1-methyl-2-oxo-2,3,4,5-tetrahydro-1H-1,5-benzodiazepin-3-yl]-2-methylalanineamide]	61.3 nM
CN1C(=O)[C@H](NC(=O)C(C)(C)NC(=O)N2CCCCC2)CN(c2ccc(OC(F)(F)F)cc2)c2ccc(F)cc21 [Example 52, N-[2-({(3R)-8-fluoro-1-methyl-2-oxo-5-[4-(trifluoromethoxy)phenyl]-2,3,4,5-tetrahydro-1H-1,5-benzodiazepin-3-yl}amino)-1,1-dimethyl-2-oxoethyl]piperidin-1-carboxyamide]	91.1 nM
CN1C(=O)[C@H](NC(=O)C(C)(C)NC(=O)c2ccc(F)cc2)CN(c2cc(Cl)cc(Cl)c2)c2cc(F)ccc21 [Example 59, N-(2-{[(3R)-5-(3,5-dichlorophenyl)-7-fluoro-1-methyl-2-oxo-2,3,4,5-tetrahydro-1H-1,5-benzodiazepin-3-yl]amino}-1,1-dimethyl-2-oxoethyl)-4-fluorobenzamide]	40.2 nM
N-(2-{[(3R)-5-(3,5-dichlorophenyl)-8-fluoro-1-methyl-2-oxo-2,3,4,5-tetrahydro-1H-1,5-benzodiazepin-3-yl]amino}-1,1-dimethyl-2-oxoethyl)-1,3-thiazol-2-carboxyamide [Example 45]	29.2 nM
N-[2-({(3R)-5-[3,5-bis(trifluoromethyl)phenyl]-8-fluoro-1-methyl-2-oxo-2,3,4,5-tetrahydro-1H-1,5-benzodiazepin-3-yl}amino)-1,1-dimethyl-2-oxoethyl]-5-fluoropyridine-2-carboxyamide [Example 19]	24.1 nM
